Literature values, collected in patent US20250235469A1, “Synergistic combinations of Finasteride, Dutasteride, and Minoxidil” (priority 2024, published 2025).

How the values were obtained:
[1] = molecular target: T1, 5α-reductase type 2 isoenzyme (Homo sapiens, UniProt P31213)
T1 sequence (P31213 1-254): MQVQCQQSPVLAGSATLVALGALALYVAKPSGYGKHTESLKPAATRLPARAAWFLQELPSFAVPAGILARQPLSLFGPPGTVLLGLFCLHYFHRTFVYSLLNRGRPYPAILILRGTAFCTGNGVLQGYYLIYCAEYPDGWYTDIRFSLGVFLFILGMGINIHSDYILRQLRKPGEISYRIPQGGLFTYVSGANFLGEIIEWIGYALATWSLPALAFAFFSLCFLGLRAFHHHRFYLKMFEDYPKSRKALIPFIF

[2] = in vivo
DHT levels = conditions: 5 mg daily dose; 2004 study
[3] = molecular target: T2, 5α-reductase type 1 isoenzyme (Homo sapiens, UniProt P18405)
T2 sequence (P18405 1-259): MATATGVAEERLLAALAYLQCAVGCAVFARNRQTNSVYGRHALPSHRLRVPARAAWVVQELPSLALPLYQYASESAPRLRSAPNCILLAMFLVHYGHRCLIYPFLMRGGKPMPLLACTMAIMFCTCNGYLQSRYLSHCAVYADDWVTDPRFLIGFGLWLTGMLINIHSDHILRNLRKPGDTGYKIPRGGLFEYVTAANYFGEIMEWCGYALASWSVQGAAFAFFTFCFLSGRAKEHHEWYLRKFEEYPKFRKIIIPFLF

SMILES	increase in hair count (hair count; men, 2006 study, dutasteride compared to finasteride)	inhibition of type 2 isoenzyme of 5α-reductase [1]	half-life [2]	reduced DHT levels (DHT levels)	inhibition of type 1 isoenzyme of 5α-reductase [3]	hair count and hair loss in users (hair count; studies of finasteride users)
C[C@]12C=CC(=O)N[C@@H]1CC[C@@H]1[C@@H]2CC[C@]2(C)[C@@H](C(=O)Nc3cc(C(F)(F)F)ccc3C(F)(F)F)CC[C@@H]12 [dutasteride, N-[2,5-bis(trifluoromethyl)phenyl]-3-oxo-4-aza-5α-androst-1-ene-17β-carboxamide]	higher increase in hair count	inhibits both the types 1 and 2 isoenzymes	several months	98.4%	inhibits both the types 1 and 2 isoenzymes	
CC(C)(C)NC(=O)[C@H]1CC[C@H]2[C@@H]3CC[C@H]4NC(=O)C=C[C@]4(C)[C@H]3CC[C@]12C [finasteride, 17β-(N-tert-butylcarbamoyl)-4-aza-5α-androst-1-en-3-one]		only inhibits the type 2 isoenzyme	only a few hours	70.8%		both an increase in hair count and a reduction in hair loss
